From a compilation of properties of binary mixtures (doi:10.1016/j.molliq.2014.10.017)

Test: xn = mol fraction of the nth substance listed
Settings: 101 kPa

CCCC[n+]1ccn(C)c1.N#C[S-] + CC#N
speed of sound [m/s]
Settings	293.15 K	298.15 K	303.15 K	308.15 K	313.15 K
x2 = 0	1778.8	1767.2	1755.4	1743.7	1732.1
x2 = 0.0984	1764.8	1752.9	1740.8	1728.9	1717
x2 = 0.1936	1749.3	–	1724.7	1712.5	1700.3
x2 = 0.3061	–	1714.1	1701.4	1688.7	1676.1
x2 = 0.4068	1701.6	1688.5	1675.3	1662.1	1649
x2 = 0.4899	–	1662.5	1648.8	1635.2	1621.7
x2 = 0.5994	1633.3	1618.7	1604.2	1589.7	1575.4
x2 = 0.6925	1586.2	1571.2	–	1540.8	1525.7
x2 = 0.7988	–	1498.6	–	1465.7	1449.4
x2 = 0.8971	1426.5	1408.9	1391	1373.1	1355.2
x2 = 0.9465	1372.3	1353.6	1334.8	1316	1297.2

CCOS(=O)(=O)[O-].CC[n+]1ccn(C)c1 + CC#N
speed of sound [m/s]
Settings	293.15 K	298.15 K	303.15 K	308.15 K	313.15 K
x2 = 0	1693.1	1680.8	1668.5	–	1644.4
x2 = 0.0934	–	1670.3	–	–	1633.5
x2 = 0.1936	1667	1654.5	1641.9	1629.3	1616.8
x2 = 0.2906	1649.5	1639.7	1623.8	1610.9	1598.1
x2 = 0.397	1626.4	1613.3	1599.9	1586.6	1573.5
x2 = 0.4967	1592.4	1578.7	1564.7	1550.8	1537
x2 = 0.5938	–	1552.3	–	1523.5	–
x2 = 0.7001	–	–	–	1474.1	1458.9
x2 = 0.7953	1464.6	1448.5	1432.3	1416	1399.8
x2 = 0.8951	–	1373.4	–	1337.9	1320.2
x2 = 0.9516	1343.4	1324.8	–	1287.1	1268.3

CC#N + CCCC[n+]1ccn(C)c1.N#C[S-]
x1 = 1
Settings	speed of sound [m/s]
303.15 K	1258.8
313.15 K	1218.5

CC#N + CCOS(=O)(=O)[O-].CC[n+]1ccn(C)c1
x1 = 1
Settings	speed of sound [m/s]
293.15 K	1298.8
298.15 K	1279
303.15 K	1258.8
308.15 K	1238.6
313.15 K	1218.5
